Results reported in PubChem BioAssay AID449758 (The Scripps Research Institute Molecular Screening Center, 2010).
The source made the active and inactive calls. How the calls were made is not given here.

What follows are compounds tested on Human cells, IFNg-induced IRF-1 mRNA, SYBR qPCR (assay: reduction of STAT1 target gene IRF-1 transcripts – cell-based, SYBR qPCR, powder samples, counter-screen for STAT1 inhibitor project, late-stage follow-up (AID 449758)). Details: at 10 µM; stronger effect = lower value.

Structure (SMILES) | fold change
CCOC(=O)C(=CNc1cc(C)nn1-c1ccccc1)C(=O)OCC | 0.997 (inactive)
CCOC(=O)N1CCN(C(=O)c2ccc(-n3c(=S)[nH]c4ccccc4c3=O)cc2)CC1 | 0.883 (inactive)
Cc1cc(=O)n(C(NC(=O)c2ccccc2)C(=O)c2ccccc2)cn1 (stereo not given) | 1.24 (inactive)
O=c1cc(CSc2nc3ccccc3c(=O)[nH]2)c2ccc(O)cc2o1 | 1.36 (inactive)
Cc1ccc(-n2nc(C(=O)O)c3ccccc3c2=O)cc1C | 0.764 (inactive)
